{"source": "patent US7452717B2", "about": "“Compositions and methods for sensitizing and inhibiting growth of human tumor cells” (St. Jude Children's Research Hospital, priority 1998, dated 2008)", "key": {"topoisomerase I": {"target": "topoisomerase I (Homo sapiens, UniProt P11387)", "sequence (P11387 whole entry)": "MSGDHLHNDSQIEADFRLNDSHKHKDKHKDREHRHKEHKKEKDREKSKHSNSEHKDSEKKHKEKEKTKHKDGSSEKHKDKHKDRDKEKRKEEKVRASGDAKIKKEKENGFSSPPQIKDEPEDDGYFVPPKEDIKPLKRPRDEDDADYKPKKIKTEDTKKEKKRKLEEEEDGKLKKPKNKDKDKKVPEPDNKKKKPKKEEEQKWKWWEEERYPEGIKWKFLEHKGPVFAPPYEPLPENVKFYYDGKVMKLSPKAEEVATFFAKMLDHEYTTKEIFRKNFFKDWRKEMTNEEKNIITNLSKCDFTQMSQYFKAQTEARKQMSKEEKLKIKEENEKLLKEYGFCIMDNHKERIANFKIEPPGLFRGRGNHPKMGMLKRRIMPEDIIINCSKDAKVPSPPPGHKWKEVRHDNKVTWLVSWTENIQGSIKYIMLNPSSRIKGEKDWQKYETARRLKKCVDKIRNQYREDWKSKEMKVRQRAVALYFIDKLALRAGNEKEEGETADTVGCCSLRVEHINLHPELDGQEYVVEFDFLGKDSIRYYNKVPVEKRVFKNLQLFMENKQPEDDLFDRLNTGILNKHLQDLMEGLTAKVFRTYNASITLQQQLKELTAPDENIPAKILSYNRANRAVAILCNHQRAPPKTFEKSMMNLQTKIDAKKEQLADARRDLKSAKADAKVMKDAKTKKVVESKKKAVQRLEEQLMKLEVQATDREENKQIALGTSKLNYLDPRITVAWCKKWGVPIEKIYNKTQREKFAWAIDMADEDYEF", "details": "cited from earlier work"}, "[1]": {"tested_on": "U373 glioblastoma xenografts transfected with control plasmid", "assay": "U373 glioblastoma xenografts with control plasmid in SCID mice", "type": "in vivo", "details": "U373 xenografts with control plasmid (no rabbit CE), CPT-11 7.5 mg/kg/day, three cycles", "excerpt": "(§1) The tumor growth rate is depicted on the Y-axis in terms of tumor volume and is plotted as a function of time in weeks (X-axis). Open circles depict the tumor volume of untreated U373 xenografts expressing rabbit CE. Filled triangles depict the response of control xenografts (no rabbit CE) treated with CPT-11. Filled squares depict the response of cells expressing rabbit CE and treated with CPT-11. […] Each point represents the mean of 14 tumors in 7 individual mice.\n(§2) Similar studies were performed employing U373 glioblastoma cells transfected with the pIRESneo plasmid or with pIRESneo containing the cDNA for rabbit liver CE and selected with G418. Expression of CE in the tumor cells was confirmed by biochemical assay using the substrate o-NPA. Cells were injected subcutaneously into the flanks of the SCID mice."}, "[2]": {"tested_on": "Cos7 cells expressing rabbit liver CE", "assay": "Cell survival of Cos7 cells transiently transfected with rabbit CE (pCIRABFL)", "type": "cell-based, monkey", "details": "control Cos7 cells versus Cos7 cells transfected with CE", "excerpt": "To confirm that the cDNA encoded CE, the 1.7 kb EcoRI fragment was ligated into pCIneo to generate pCIRABFL and the plasmid transiently transfected into Cos7 cells. pCIneo contains the SV40 origin of replication allowing plasmid amplification in cells expressing the large T antigen, such as Cos7."}, "[3]": {"tested_on": "COS-7 cells transfected with the parent plasmid", "assay": "Growth inhibition, COS-7 cells transfected with parent plasmid", "type": "cell-based, monkey", "details": "Primates, read-out: IC50 (CPT-11); COS-7 cells transfected with the parent plasmid (pCEneo)", "procedure": "(§3) Growth inhibition assays were performed with COS-7 cells as previously described (Potter et al. 1998 Cancer Res. 52:2646-2651; Danks et al. 1998 Cancer Res. 52:2646-2651,1998). Forty-eight hours after transfection, 5×10^4 cells were plated into 1.5 cm diameter dishes and allowed to attach overnight. […] Cell number was determined by counting using a Coulter Multisyser II (Coulter Electronics, Luton, England) and growth inhibition curves were plotted using Prism software (GraphPad Software Inc., San Diego, Calif.)."}, "human liver CE (hCE1)": {"target": "T1, human liver CE (hCE1) (Homo sapiens, UniProt P23141)", "T1 construct": "expressed in transfected cells; host or cells: COS-7 (sonicates of transiently transfected cells)", "T1 sequence (P23141 18-567)": "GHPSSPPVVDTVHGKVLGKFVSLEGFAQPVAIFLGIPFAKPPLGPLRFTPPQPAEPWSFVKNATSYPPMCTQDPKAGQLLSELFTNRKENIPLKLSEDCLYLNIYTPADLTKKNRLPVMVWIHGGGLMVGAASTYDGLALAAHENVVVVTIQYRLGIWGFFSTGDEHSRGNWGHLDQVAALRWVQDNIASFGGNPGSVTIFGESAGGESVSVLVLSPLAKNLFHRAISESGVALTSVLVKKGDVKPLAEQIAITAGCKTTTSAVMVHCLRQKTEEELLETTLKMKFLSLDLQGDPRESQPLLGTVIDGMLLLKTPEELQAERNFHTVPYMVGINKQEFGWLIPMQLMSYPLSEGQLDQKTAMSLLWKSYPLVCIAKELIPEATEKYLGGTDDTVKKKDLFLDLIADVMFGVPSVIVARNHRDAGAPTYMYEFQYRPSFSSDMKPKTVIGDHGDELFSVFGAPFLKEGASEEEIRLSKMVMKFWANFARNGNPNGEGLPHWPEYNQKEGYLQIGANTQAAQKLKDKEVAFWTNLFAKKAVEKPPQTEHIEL", "assay": "CPT-11 conversion assay, COS-7 cells expressing hCE1", "type": "in vitro ADME", "details": "plasmid pCIHUMCAR, enzyme hCE1"}, "[4]": {"tested_on": "CEs purified from human tissues", "details": "cited from earlier work"}, "human NB-1691 xenografts": {"tested_on": "human NB-1691 xenografts", "assay": "NB-1691 xenograft model for MRD", "type": "in vivo, mice", "details": "10 mg/kg CPT-11 daily for 5 days on two consecutive weeks", "excerpt": "However, within 4-6 weeks, tumors are palpable in the exact position where the original xenograft was implanted. Since these tumors arise from cells that survived the initial cycle of chemotherapy, this model therefore mimics results seen in patients following surgical resection of the primary tumor and subsequent regrowth at the same site."}, "Rh18 RMS xenografts": {"tested_on": "Rh18 RMS xenografts", "details": "cited from earlier work"}, "[5]": {"tested_on": "Rh30pIRESrabbit xenografts (expressing rabbit CE)", "assay": "Rh30pIRESrabbit rhabdomyosarcoma xenografts in SCID mice", "type": "in vivo", "details": "2.5 mg CPT-11/kg/day, 5 days/week for 2 weeks, every 21 days, three cycles", "procedure": "(§4) The tumor growth rate is depicted on the Y-axis of each graph in terms of tumor volume and is plotted as a function of time in weeks (X-axis).\n(§5) In this preclinical model, expression of the transfected cDNA for rabbit CE was maintained for at least 12 weeks.\n(§6) Experiments were performed in this model to compare the responses of mice bearing human Rh30 and Rh30pIRESrabbit xenografts. Rh30 rhabdosarcoma xenografts were transfected with pIRESneo plasmid containing the cDNA for rabbit liver CE and selected with G418. Expression of CE was confirmed by biochemical assay using the CE substrate o-NPA and maintained for at least 12 weeks. Two groups of SCID mice were then injected with the transfected Rh30pIRESrabbit cells subcutaneously into the flanks. A third group of control mice was injected in identical fashion with Rh30 cells not transfected with the plasmid."}, "[6]": {"tested_on": "U373 glioblastoma xenografts expressing rabbit liver CE", "assay": "U373 glioblastoma xenografts expressing rabbit CE in SCID mice", "type": "in vivo", "details": "CPT-11 7.5 mg/kg/day, three cycles", "excerpt": "as §1, §2"}, "rabbit liver CE [7]": {"target": "T2, rabbit liver CE (Oryctolagus cuniculus, UniProt P12337)", "T2 sequence (P12337 19-565)": "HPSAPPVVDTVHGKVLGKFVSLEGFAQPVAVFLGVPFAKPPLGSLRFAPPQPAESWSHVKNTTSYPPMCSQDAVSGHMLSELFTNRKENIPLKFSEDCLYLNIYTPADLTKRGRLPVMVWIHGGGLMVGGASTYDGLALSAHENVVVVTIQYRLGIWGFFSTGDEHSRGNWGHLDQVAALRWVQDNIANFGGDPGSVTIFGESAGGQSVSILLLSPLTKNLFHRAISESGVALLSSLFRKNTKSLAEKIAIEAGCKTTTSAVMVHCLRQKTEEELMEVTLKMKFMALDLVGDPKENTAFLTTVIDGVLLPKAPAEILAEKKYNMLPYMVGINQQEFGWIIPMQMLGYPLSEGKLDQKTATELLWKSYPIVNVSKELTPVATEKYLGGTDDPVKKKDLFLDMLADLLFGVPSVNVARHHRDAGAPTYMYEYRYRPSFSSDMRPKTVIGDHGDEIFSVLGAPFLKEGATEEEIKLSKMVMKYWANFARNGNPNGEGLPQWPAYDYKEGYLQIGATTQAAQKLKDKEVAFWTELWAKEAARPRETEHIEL", "type": "in vitro ADME", "set-up": "To amplify a full length rabbit CE cDNA, oligonucleotide primers RabNTERM; expressed in transfected cells; host or cells: COS-7 (sonicates of transiently transfected cells)", "details": "COS-7 cells, plasmid pCIRAB, enzyme rabbit"}, "Rh30 cells": {"tested_on": "Rh30 cells", "assay": "Growth inhibition of Rh30 cells by CPT-11 pre-incubated with rabbit liver CE", "type": "cell-based, human", "excerpt": "Another aspect of the present invention relates to the ability of compositions comprising a polynucleotide encoding a carboxylesterase and a disease-specific responsive promoter of selected tumor cells to sensitize the tumor cells to a chemotherapeutic prodrug. The ability of a rabbit CE or a human intestinal CE of the present invention to sensitize human tumor cells to CPT-11 was examined. Experiments were first performed to confirm that the metabolite produced by the activity of a CE of the present invention is biologically active in vitro. Rh30 cells were exposed to the products of each reaction for one hour and the percentage of growth inhibition was determined. […] Similar confirmatory experiments were performed with COS-7 cells.\nEach reaction mixture was then filter-sterilized and Rh30 cells were exposed to drug for one hour, at which time the medium was replaced with drug-free medium containing serum. […] Cells were allowed to grow for 3 cell doubling times and cell numbers were determined."}, "Rh30 xenografts": {"tested_on": "Rh30 xenografts", "assay": "Rh30 rhabdomyosarcoma xenografts (no CE) in SCID mice", "type": "in vivo", "details": "Rh30 xenografts not expressing CE, 2.5 mg CPT-11/kg/day, 5 days/week for 2 weeks, every 21 days, three cycles", "procedure": "as §4, §5, §6"}, "rabbit liver CE [8]": {"target": "rabbit liver CE (Oryctolagus cuniculus, UniProt P12337)", "details": "commercially available partially purified rabbit liver CE", "excerpt": "(§7) This screening included enzymes from a series of sera, cell extracts and commercially available CEs using a rapid fluorometric assay."}, "pig liver CE": {"tested_on": "pig liver CE", "assay": "CPT-11 metabolism by commercially available pig liver CE", "details": "commercially available partially purified pig liver CE", "excerpt": "as §7"}, "[9]": {"tested_on": "COS-7 cells expressing hiCE", "assay": "Growth inhibition, COS-7 cells expressing hiCE", "type": "cell-based, monkey", "details": "Primates, read-out: IC50 (CPT-11), 2 h exposure, three days growth", "procedure": "as §3"}, "[10]": {"details": "in humans; cited from earlier work"}, "[11]": {"tested_on": "U-373 glioma cells expressing rabbit liver CE", "assay": "Growth inhibition by APC, U-373 glioma cells expressing rabbit liver CE", "type": "cell-based, human", "details": "U-373 cells expressing rabbit liver CE, 2 h exposure (FIG. 7)", "procedure": "FIG. 7 is a linegraph showing a comparison of the sensitization, depicted as % survival on the Y-axis, of U-373 glioma cells exposed to APC, depicted as log[APC] at concentrations from 10^−8 to 10^−5 M on the X-axis, from in situ expression of rabbit liver CE (filled squares) and human alveolar macrophage CE (filled circles). Cells were exposed for 2 hours to APC.\n(§8) No known human enzyme activates APC. […] Thus, the combination of APC and sensitization of selected tumor cells with rabbit liver CE as described above can be used to produce a tumor-specific cell death while greatly minimizing the toxic side effects associated with administration of chemotherapy."}, "rabbit liver CE [12]": {"target": "T2, rabbit liver CE", "type": "biochemical", "set-up": "To amplify a full length rabbit CE cDNA, oligonucleotide primers RabNTERM; expressed in transfected cells", "details": "in vitro, rabbit CE (FIG. 6)", "excerpt": "FIG. 6 is a linegraph showing the conversion of APC, depicted on the X-axis at nanomolar concentrations, to SN-38, depicted on the Y-axis at nanomolar concentrations, in vitro by the activity of rabbit liver CE given at doses of 0 (filled cross), 10 (filled hexagon), 25 (filled triangle), 50 (filled circle) or 100 (filled square) units. Data presented represent the mean response at each dose level.\nas §8"}}, "note": "Entries after “also recorded” stand apart in the source; their conditions may differ. Like-named read-outs stand apart in the source and are kept apart here.", "data": [{"smiles": "CCc1c2c(nc3ccc(O)cc13)-c1cc3c(c(=O)n1C2)COC(=O)[C@]3(O)CC", "note": "[SN-38, 7-ethyl-10-hydroxy-camptothecin]", "values": [{"measurement": "inhibition of topoisomerase I", "setting": "topoisomerase I", "result": "potent inhibitor of topoisomerase I"}]}, {"smiles": "CCc1c2c(nc3ccc(OC(=O)N4CCC(N5CCCCC5)CC4)cc13)-c1cc3c(c(=O)n1C2)COC(=O)[C@]3(O)CC", "note": "[CPT-11, 7-ethyl-10-[4-(1-piperidino)-1-piperidino]carbonyloxycamptothecin]", "values": [{"measurement": "tumor response", "setting": "[1]", "result": "stable disease with no significant regression; also recorded: stable disease but no significant regression"}, {"measurement": "difference in sensitivity to CPT-11 (% cell survival, FIG. 5)", "setting": "[2]", "result": "approximately 350 fold"}, {"measurement": "IC50", "setting": "[3]", "result": 5400, "unit": "nM"}, {"measurement": "CPT-11 Conversion", "setting": "human liver CE (hCE1)", "result": 9.6, "unit": "pmol/h/mg"}, {"measurement": "prodrug converted to active drug (SN-38)", "setting": "[4]", "result": "less than 5%"}, {"measurement": "time until tumors are palpable again at the original site", "setting": "human NB-1691 xenografts", "result": "4-6 weeks"}, {"measurement": "tumor response", "setting": "human NB-1691 xenografts", "result": "complete regression of the tumor"}, {"measurement": "tumor response", "setting": "Rh18 RMS xenografts; 10 mg/kg/day, same schedule", "result": "only partial tumor regression"}, {"measurement": "tumor response", "setting": "Rh18 RMS xenografts; 20 mg of CPT-11/kg/day daily for 5 days for two weeks", "result": "complete regression"}, {"measurement": "tumor response", "setting": "[5]", "result": "regressed completely and did not regrow during the 12 weeks of the study; also recorded: complete tumor regression, even out to 12 weeks"}, {"measurement": "tumor response", "setting": "[6]", "result": "regressed completely; also recorded: tumor regression was seen only in treated cells expressing rabbit CE"}, {"measurement": "CPT-11 Conversion", "setting": "rabbit liver CE [7]", "result": 2323.0, "unit": "pmol/h/mg"}, {"measurement": "inhibition at 1 µM", "setting": "Rh30 cells; Homo sapiens, Rh30, 1 h, read-out: inhibition of cell growth", "result": "30 to 60", "unit": "%"}, {"measurement": "inhibition of cell growth", "setting": "Rh30 cells; Rh30 cells, 1 to 5 units of CE inactivated by heating", "result": "no inhibition of cell growth"}, {"measurement": "tumor response", "setting": "Rh30 xenografts", "result": "regressed only transiently, regrowing within one week after CPT-11 treatment had stopped; also recorded: initial regression but regrowth; also recorded: regressed only transiently with CPT-11 treatment, with regrowth occurring within one week after CPT-11 treatment stopped"}, {"measurement": "metabolism of CPT-11", "setting": "rabbit liver CE [8]", "result": "metabolized CPT-11 efficiently"}, {"measurement": "metabolism of CPT-11", "setting": "pig liver CE", "result": "metabolized CPT-11 efficiently"}, {"measurement": "IC50", "setting": "[9]", "result": 500, "unit": "nM"}]}, {"smiles": "CCc1c2c(nc3ccc(OC(=O)N4CCC(NCCCCC(=O)O)CC4)cc13)-c1cc3c(c(=O)n1C2)COC(=O)[C@]3(O)CC", "note": "[APC]", "values": [{"measurement": "conversion to an active metabolite", "setting": "[10]", "result": "not converted to an active metabolite in humans"}, {"measurement": "sensitization to growth inhibitory effects of APC", "setting": "[11]", "result": "sensitized to the growth inhibitory effects of APC"}, {"measurement": "conversion of APC to SN-38", "setting": "rabbit liver CE [12]", "result": "converted to SN-38 in a concentration-dependent manner"}]}]}
